# Test results reported in paper PMC12226413, “Downregulation of O‐GlcNAcylation enhances etoposide‐induced p53‐mediated apoptosis in HepG2 human liver cancer cells” (FEBS Open Bio, 2025).
# Key:
# [1] = biological target: T1, Recombinant human OGT protein (O-GlcNAc transferase) (Homo sapiens, UniProt O15294); assay: UDP-Glo glycosyltransferase assay (luminescence); assay type: biochemical; conditions: UDP-GlcNAc and peptide KKKYPGGSTPVSSANMM as substrates; 25 mM Tris pH 7.5, 12.5 mM MgCl2, 0.06 mg/mL BSA, 1 mM DTT; unreliable
# T1 construct: recombinant human OGT from R&D Systems
# T1 sequence (O15294 2-1046): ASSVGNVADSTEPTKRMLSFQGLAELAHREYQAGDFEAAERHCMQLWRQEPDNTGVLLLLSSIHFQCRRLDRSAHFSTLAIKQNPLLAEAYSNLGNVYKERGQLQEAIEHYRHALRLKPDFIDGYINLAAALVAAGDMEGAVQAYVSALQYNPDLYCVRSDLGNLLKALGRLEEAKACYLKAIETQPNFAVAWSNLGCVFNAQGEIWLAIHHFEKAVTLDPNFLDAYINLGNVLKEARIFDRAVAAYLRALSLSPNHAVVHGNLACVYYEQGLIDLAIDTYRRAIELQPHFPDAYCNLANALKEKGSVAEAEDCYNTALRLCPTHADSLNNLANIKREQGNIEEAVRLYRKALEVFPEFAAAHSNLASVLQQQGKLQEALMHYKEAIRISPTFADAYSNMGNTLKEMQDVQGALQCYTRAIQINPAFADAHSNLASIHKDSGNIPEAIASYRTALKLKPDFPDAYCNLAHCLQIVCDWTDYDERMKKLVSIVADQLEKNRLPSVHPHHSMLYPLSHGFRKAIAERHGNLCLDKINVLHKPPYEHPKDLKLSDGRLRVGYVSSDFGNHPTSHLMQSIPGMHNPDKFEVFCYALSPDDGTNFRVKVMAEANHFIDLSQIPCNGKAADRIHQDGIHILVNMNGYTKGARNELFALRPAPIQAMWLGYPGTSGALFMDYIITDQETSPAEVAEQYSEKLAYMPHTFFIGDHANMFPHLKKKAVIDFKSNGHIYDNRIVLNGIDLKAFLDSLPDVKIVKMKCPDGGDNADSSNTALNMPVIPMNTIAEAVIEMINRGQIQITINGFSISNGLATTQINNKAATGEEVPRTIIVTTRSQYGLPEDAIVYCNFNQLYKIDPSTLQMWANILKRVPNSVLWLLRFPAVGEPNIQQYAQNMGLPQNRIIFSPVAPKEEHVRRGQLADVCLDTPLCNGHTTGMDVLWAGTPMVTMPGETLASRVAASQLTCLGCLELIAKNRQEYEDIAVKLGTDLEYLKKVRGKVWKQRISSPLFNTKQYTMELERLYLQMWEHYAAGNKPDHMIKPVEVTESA
# [2] = biological target: T1, Recombinant human OGT protein (O-GlcNAc transferase); assay: UDP-Glo glycosyltransferase assay (luminescence); assay type: biochemical
Compound,% inhibition at 400 μM [1],IC50 [2] [µM]
COc1cc([C@@H]2c3cc4c(cc3[C@@H](O[C@@H]3O[C@@H]5CO[C@@H](C)O[C@H]5[C@H](O)[C@H]3O)[C@H]3COC(=O)[C@H]23)OCO4)cc(OC)c1O [Etoposide],~ 47.3%,–
COc1ccccc1[C@@H](NS(=O)(=O)c1ccc2[nH]c(=O)ccc2c1)C(=O)N(Cc1ccco1)Cc1cccs1 [OSMI-1],–,4.47
